# According to US8563542B2 (Cyclacel Limited, priority 2007, dated 2013):
# Target: PLK1 (Homo sapiens, UniProt P53350)
# Test: PLK1 protein kinase assay (CDC25C phosphorylation, [γ-32P]-ATP)
# Type: biochemical
# Settings: Table 2, PLK1 IC50; class symbols; read-out: PLK1 IC50
# Sequence of PLK1 (P53350 whole entry): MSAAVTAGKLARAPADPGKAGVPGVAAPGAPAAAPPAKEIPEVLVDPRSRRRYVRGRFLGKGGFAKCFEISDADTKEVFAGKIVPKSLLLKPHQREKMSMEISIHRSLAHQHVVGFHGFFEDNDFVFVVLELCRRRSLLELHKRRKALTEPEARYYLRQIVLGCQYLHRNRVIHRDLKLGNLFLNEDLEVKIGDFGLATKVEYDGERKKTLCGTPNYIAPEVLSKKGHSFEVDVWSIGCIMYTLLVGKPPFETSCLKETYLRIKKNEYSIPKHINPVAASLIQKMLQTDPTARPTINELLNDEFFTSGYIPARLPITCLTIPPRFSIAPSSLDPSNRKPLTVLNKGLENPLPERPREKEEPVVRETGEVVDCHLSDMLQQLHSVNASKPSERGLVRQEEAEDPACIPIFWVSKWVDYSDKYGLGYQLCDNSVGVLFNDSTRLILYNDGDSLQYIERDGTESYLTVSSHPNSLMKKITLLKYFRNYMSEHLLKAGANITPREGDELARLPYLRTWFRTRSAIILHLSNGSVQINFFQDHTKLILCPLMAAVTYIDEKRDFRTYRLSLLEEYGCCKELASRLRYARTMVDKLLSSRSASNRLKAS
row,Compound,IC50
1,"CN1CCC(NC(=O)c2ccc(Nc3ncc4c(n3)N(C3CCCC3)CCC(=O)N4C)c(Cl)c2)CC1 [compound 214, 3-Chloro-4-(9-cyclopentyl-5-methyl-6-oxo-6,7,8,9-tetrahydro-5H-pyrimido[4,5-b][1,4]diazepin-2-ylamino)-N-(1-methyl-piperidin-4-yl)-benzamide]",< 0.1 µM
2,"CN1CCC(NC(=O)c2ccc(Nc3ncc4c(n3)N(C3CCCC3)CCC(=O)N4C)c(OC(F)(F)F)c2)CC1 [compound 216, 4-(9-Cyclopentyl-5-methyl-6-oxo-6,7,8,9-tefrahydro-5H-pyrimido[4,5-b][1,4]diazepin-2-ylamino)-N-(1-methyl-piperidin-4-yl)-3-trifluoromethoxy-benzamide]",< 1 µM
3,"COc1cc(C(=O)NC2CCN(Cc3ccccc3)CC2)ccc1Nc1ncc2c(n1)N(C1CCCC1)CC1(CCC1)C(=O)N2C [compound 217, 4-(9-Cyclopentyl-5-methyl-6-oxo-6,7,8,9-tetrahydro-5H-spiro[pyrimido[4,5-b][1,4]diazepin-3,1′-cyclobutane]-2-ylamino)-3-methoxy-N-(1-benzylpiperidin-4-yl)-benzamide]",< 1 µM
4,"CCN(CC)CCNC(=O)c1ccc(Nc2ncc3c(n2)N(C2CCCC2)CC2(CCC2)C(=O)N3C)c(OC)c1 [compound 219, 4-(9-Cyclopentyl-5-methyl-6-oxo-6,7,8,9-tetrahydro-5H-spiro[pyrimido[4,5-b][1,4]diazepin-3,1′-cyclobutane]-2-ylamino)-N-(2-diethylamino-ethyl)-3-methoxy-benzamide]",< 0.1 µM
5,"COc1cc(C(=O)NCc2ccco2)ccc1Nc1ncc2c(n1)N(C1CCCC1)CC1(CCC1)C(=O)N2C [compound 222, 4-(9-Cyclopentyl-5-methyl-6-oxo-6,7,8,9-tetrahydro-5H-spiro[pyrimido[4,5-b][1,4]diazepin-3,1′-cyclobutane]-2-ylamino)-N-furan-2-ylmethyl-3-methoxy-benzamide]",< 1 µM
6,"COc1cc(C(=O)NC2CCN(C)CC2)ccc1Nc1ncc2c(n1)N(CCC(=O)NCCO)CCC(=O)N2C [compound 223, 4-{9-[2-(2-Hydroxy-ethylcarbamoyl)-ethyl]-5-methyl-6-oxo-6,7,8,9-tetrahydro-5H-pyrimido[4,5-b][1,4]diazepin-2-ylamino}-3-methoxy-N-(1-methyl-piperidin-4-yl)-benzamide]",< 10 µM
7,"CNC(=O)CCN1CCC(=O)N(C)c2cnc(Nc3ccc(C(=O)NC4CCN(C)CC4)cc3OC)nc21 [compound 224, 3-Methoxy-4-[5-methyl-9-(2-methylcarbamoyl-ethyl)-6-oxo-6,7,8,9-tetrahydro-5H-pyrimido[4,5-b][1,4]diazepin-2-ylamino]-N-(1-methyl-piperidin-4-yl)-benzamide]",< 1 µM
8,"COc1cc(C(=O)NC2CCN(C)CC2)ccc1Nc1ncc2c(n1)N(CCC(=O)N(C)C)CCC(=O)N2C [compound 225, 4-[9-(2-Dimethylcarbamoyl-ethyl)-5-methyl-6-oxo-6,7,8,9-tetrahydro-5H-pyrimido[4,5-b][1,4]diazepin-2-ylamino]-3-methoxy-N-(1-methyl-piperidin-4-yl)-benzamide]",< 1 µM
9,"COc1cc(C(=O)NC2CCN(C)CC2)ccc1Nc1ncc2c(n1)N(CCC(=O)NCCCN(C)C)CCC(=O)N2C [compound 226, 4-{9-[2-(3-Dimethylamino-propylcarbamoyl)-ethyl]-5-methyl-6-oxo-6,7,8,9-tetrahydro-5H-pyrimido[4,5-b][1,4]diazepin-2-ylamino}-3-methoxy-N-(1-methyl-piperidin-4-yl)-benzamide]",< 1 µM
10,"CN1CCC(NC(=O)c2ccc(Nc3ncc4c(n3)N(C3CCCC3)CCC(=O)N4C)c(O)c2)CC1 [compound 228, 4-(9-Cyclopentyl-5-methyl-6-oxo-6,7,8,9-tetrahydro-5H-pyrimido[4,5-b][1,4]diazepin-2-ylamino)-3-hydroxy-N-(1-methyl-piperidin-4-yl)-benzamide]",< 0.1 µM
11,"CCc1cc(C(=O)O)ccc1Nc1ncc2c(n1)N(C1CCCC1)CC1(CC1)C(=O)N2C [compound 229, 4-(9-Cyclopentyl-5-methyl-6-oxo-6,7,8,9-tetrahydro-5H-pyrimido[4,5-b][1,4]diazepin-3,1′-cyclopropane-2-ylamino)-acid]",< 1 µM
12,"COc1cc(C(=O)O)ccc1Nc1ncc2c(n1)N(CC1CC1)CC1(CC1)C(=O)N2C [compound 230, 4-(9-Cyclopropylmethyl-5-methyl-6-oxo-6,7,8,9-tetrahydro-5H-pyrimido[4,5-b][1,4]diazepin-3,1′-cyclopropane-2-ylamino)-3-methoxy-benzoic acid]",< 1 µM
13,"CCN(CC)CCNC(=O)c1ccc(OC)c(Nc2ncc3c(n2)N(C2CCCC2)CCC(=O)N3C)c1 [compound 231, 3-(9-Cyclopentyl-5-methyl-6-oxo-6,7,8,9-tetrahydro-5H-pyrimido[4,5-b][1,4]diazepin-2-ylamino)-N-(2-diethylamino-ethyl)-4-methoxy-benzamide]",< 1 µM
14,"COc1ccc(C(=O)NCCCN(C)C)cc1Nc1ncc2c(n1)N(C1CCCC1)CCC(=O)N2C [compound 232, 3-(9-Cyclopentyl-5-methyl-6-oxo-6,7,8,9-tetrahydro-5H-pyrimido[4,5-b][1,4]diazepin-2-ylamino)-N-(3-dimethylamino-propyl)-4-methoxy-benzamide]",< 1 µM
15,"COc1ccc(C(=O)NCCCO)cc1Nc1ncc2c(n1)N(C1CCCC1)CCC(=O)N2C [compound 233, 3-(9-Cyclopentyl-5-methyl-6-oxo-6,7,8,9-tetrahydro-5H-pyrimido[4,5-b][1,4]diazepin-2-ylamino)-N-(3-hydroxy-propyl)-4-methoxy-benzamide]",< 1 µM
16,"COc1ccc(C(=O)NC(C)(C)CN2CCCCC2)cc1Nc1ncc2c(n1)N(C1CCCC1)CCC(=O)N2C [compound 234, 3-(9-Cyclopentyl-5-methyl-6-oxo-6,7,8,9-tetrahydro-5H-pyrimido[4,5-b][1,4]diazepin-2-ylamino)-N-(1,1-dimethyl-2-piperidin-1-yl-ethyl)-4-methoxy-benzamide]",< 10 µM
17,"COc1ccc(C(=O)NCC2CCN(C)CC2)cc1Nc1ncc2c(n1)N(C1CCCC1)CCC(=O)N2C [compound 235, 3-(9-Cyclopentyl-5-methyl-6-oxo-6,7,8,9-tetrahydro-5H-pyrimido[4,5-b][1,4]diazepin-2-ylamino)-4-methoxy-N-(1-methyl-piperidin-4-ylmethyl)-benzamide]",< 1 µM
18,"CCN1CCC(NC(=O)c2ccc(Nc3ncc4c(n3)N(C3CCCC3)CCC(=O)N4C)c(OC)c2)CC1 [compound 237, 4-(9-Cyclopentyl-5-methyl-6-oxo-6,7,8,9-tetrahydro-5H-pyrimido[4,5-b][1,4]diazepin-2-ylamino)-N-(1-ethyl-piperidin-4-yl)-3-methoxy-benzamide]",< 0.1 µM
19,"COc1cc(C(=O)NC2CCN(CC3CC3)CC2)ccc1Nc1ncc2c(n1)N(C1CCCC1)CCC(=O)N2C [compound 238, 4-(9-Cyclopentyl-5-methyl-6-oxo-6,7,8,9-tetrahydro-5H-pyrimido[4,5-b][1,4]diazepin-2-ylamino)-N-(1-cyclopropylmethyl-piperidin-4-yl)-3-methoxy-benzamide]",< 0.1 µM
20,"COc1cc(C(=O)O)ccc1Nc1ncc2c(n1)N(C1CCCC1)CC1(CC1)C(=O)N2C [compound 239, 4-(9-Cyclopentyl-5-methyl-6-oxo-6,7,8,9-tetrahydro-5H-pyrimido[4,5-b][1,4]diazepin-3,1′-cyclopropane-2-ylamino)-3-methoxy-benzoic acid]",< 1 µM
21,"COc1cc(C(=O)NC2CCN(Cc3ccccc3)CC2)ccc1Nc1ncc2c(n1)N(CC1CC1)CCC(=O)N2C [compound 241, N-(1-Benzyl-piperidin-4-yl)-4-(9-cyclopropylmethyl-5-methyl-6-oxo-6,7,8,9-tetrahydro-5H-pyrimido[4,5-b][1,4]diazepin-2-ylamino)-3-methoxy-benzamide]",< 1 µM
22,"COc1cc(C(=O)NCC2CCN(C)CC2)ccc1Nc1ncc2c(n1)N(CC1CC1)CCC(=O)N2C [compound 242, 4-(9-Cyclopropylmethyl-5-methyl-6-oxo-6,7,8,9-tetrahydro-5H-pyrimido[4,5-b][1,4]diazepin-2-ylamino)-3-methoxy-N-(1-methyl-piperidin-4-ylmethyl)-benzamide]",< 1 µM
23,"COc1cc(C(=O)NC2CN3CCC2CC3)ccc1Nc1ncc2c(n1)N(CC1CC1)CCC(=O)N2C (stereo not drawn) [compound 243, N-(1-Aza-bicyclo[2.2.2]oct-3-yl)-4-(9-cyclopropylmethyl-5-methyl-6-oxo-6,7,8,9-tetrahydro-5H-pyrimido[4,5-b][1,4]diazepin-2-ylamino)-3-methoxy-benzamide]",< 1 µM
24,"COc1cc(C(=O)NC2CC(C)(C)N(C)C(C)(C)C2)ccc1Nc1ncc2c(n1)N(CC1CC1)CCC(=O)N2C [compound 244, 4-(9-Cyclopropylmethyl-5-methyl-6-oxo-6,7,8,9-tetrahydro-5H-pyrimido[4,5-b][1,4]diazepin-2-ylamino)-3-methoxy-N-(1,2,2,6,6-pentamethyl-piperidin-4-yl)-benzamide]",< 1 µM
25,"COc1cc(C(=O)NC2CCCN(C)C2)ccc1Nc1ncc2c(n1)N(CC1CC1)CCC(=O)N2C (stereo not drawn) [compound 245, 4-(9-Cyclopropylmethyl-5-methyl-6-oxo-6,7,8,9-tetrahydro-5H-pyrimido[4,5-b][1,4]diazepin-2-ylamino)-3-methoxy-N-(1-methyl-piperidin-3-yl)-benzamide]",< 1 µM
26,"COc1cc(C(=O)NCC(C)(C)CN(C)C)ccc1Nc1ncc2c(n1)N(CC1CC1)CCC(=O)N2C [compound 246, 4-(9-Cyclopropylmethyl-5-methyl-6-oxo-6,7,8,9-tetrahydro-5H-pyrimido[4,5-b][1,4]diazepin-2-ylamino)-N-(3-dimethylamino-2,2-dimethyl-propyl)-3-methoxy-benzamide]",< 1 µM
27,"COc1cc(C(=O)NCCCN(C)C)ccc1Nc1ncc2c(n1)N(CC1CC1)CCC(=O)N2C [compound 247, 4-(9-Cyclopropylmethyl-5-methyl-6-oxo-6,7,8,9-tetrahydro-5H-pyrimido[4,5-b][1,4]diazepin-2-ylamino)-N-(3-dimethylamino-propyl)-3-methoxy-benzamide]",< 1 µM
